The values below come from ChEMBL document CHEMBL1201862, “PubChem BioAssay data set” (2004).

Activity calls are given as the source filed them.

One assay deals with Prothrombin (Homo sapiens, UniProt P00734). Put plainly: Thrombin 1536 HTS Dose Response Confirmation. [Related pubchem assays: 1046 (Thrombin 1536 HTS; hits were confirmed in this assay)]. It is filed as functional.
Another assay has as its target Cytochrome P450 2C9 (Homo sapiens, UniProt P11712).
Assay [1] is described as follows: intracellular Trypanosoma cruzi inhibitors in host cells – cell-based, plate reader, cherry-pick samples, set 3, dose response (AID 651818).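 Further: compounds incubated with infected cells for about four days.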 It is filed as functional.
A further assay addresses Large T antigen (Simian virus 40, UniProt P03070). It counts as functional, Betapolyomavirus macacae.
A further assay addresses Ephrin type-A receptor 4 (Mus musculus, UniProt Q03137). Briefly: EphA4 ligand-binding antagonists – biochemical, colorimetric, mouse EphA4, primary screen (AID 689). It counts as functional.
Assay [2] is described as follows: off-target signal loss in HeLa-CEM21 co-culture – HeLa F-luc CTL cells, cherry-picked, counter-screen for HIV-1 Env fusion inhibitor project, dose response (AID 652040).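 Further: potency for signal decrease marking cytotoxic or nonspecific inhibition.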 It is filed as functional, cell-based.
The nature of assay [3]: HIV-1 AD8 envelope cell-cell fusion blockers – cherry-pick, dose response (AID 652062).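 Further: luciferase signal from cell-cell fusion driven by HIV-1 clade B AD8 Env; potency is for inhibitors of fusion seen as a drop in luminescence.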 It counts as functional, cell-based.
The nature of assay [4]: blockers of HIV-1 envelope-mediated cell-cell fusion – cherry-pick, dose response (AID 652057). It counts as functional, cell-based.
Assay [5] is described as follows: blockers of HIV-1 ZM109 envelope-driven cell-cell fusion – HeLa effector, CEM target cells, luciferase, cherry-pick, dose response (AID 652058).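 Further: luciferase signal from HIV-1 Env mediated cell-cell fusion of effector and target cells.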 It is filed as functional, cell-based.
Assay [6] addresses Eukaryotic translation initiation factor 4E (Mus musculus, UniProt P63073). Put plainly: blockers of eIF4G binding by eIF4E – biochemical, TR-FRET, dose response (AID 855).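 Further: potency for disrupting eIF4E binding to eIF4GI seen as loss of FRET.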 It counts as functional.
The target in assay [7] is FAD-linked sulfhydryl oxidase ALR (Homo sapiens, UniProt P55789). Put plainly: ALR-catalysed DTT oxidation blockers – biochemical, H2O2 detection, luminescence, cherry-pick, dose response (AID 493248).
The target of assay [8] is T1, Estrogen receptor beta (Homo sapiens, UniProt Q92731).
Assay [9] concerns the target T1, Estrogen receptor beta. Briefly: blockers of SRC-3 recruitment to ERβ – biochemical, ELISA, streptavidin-HRP readout, orthogonal assay, confirmation (AID 1060).
Assay [10] deals with T2, Polyadenylate-binding protein 1 (Homo sapiens, UniProt P11940). Put plainly: MLLE binding blockers, Cy5 peptide tracer – biochemical, fluorescence polarization, Cy5-PAM2 peptide, secondary, miRNA deadenylation inhibitor project, dose response (AID 602260). It is filed as functional. To be noted: read-out: IC50_Mean.
Assay [11] deals with T2, Polyadenylate-binding protein 1. Put plainly: MLLE domain peptide-binding blockers, IC50 – biochemical, fluorescence polarization, FITC-PAM2 peptide, dose response (AID 602259). To be noted: read-out: IC50_Mean. It is filed as functional.
Assay [12] addresses T3, Histone-lysine N-methyltransferase NSD2 (Homo sapiens, UniProt O96028).
T3 sequence (O96028 whole entry): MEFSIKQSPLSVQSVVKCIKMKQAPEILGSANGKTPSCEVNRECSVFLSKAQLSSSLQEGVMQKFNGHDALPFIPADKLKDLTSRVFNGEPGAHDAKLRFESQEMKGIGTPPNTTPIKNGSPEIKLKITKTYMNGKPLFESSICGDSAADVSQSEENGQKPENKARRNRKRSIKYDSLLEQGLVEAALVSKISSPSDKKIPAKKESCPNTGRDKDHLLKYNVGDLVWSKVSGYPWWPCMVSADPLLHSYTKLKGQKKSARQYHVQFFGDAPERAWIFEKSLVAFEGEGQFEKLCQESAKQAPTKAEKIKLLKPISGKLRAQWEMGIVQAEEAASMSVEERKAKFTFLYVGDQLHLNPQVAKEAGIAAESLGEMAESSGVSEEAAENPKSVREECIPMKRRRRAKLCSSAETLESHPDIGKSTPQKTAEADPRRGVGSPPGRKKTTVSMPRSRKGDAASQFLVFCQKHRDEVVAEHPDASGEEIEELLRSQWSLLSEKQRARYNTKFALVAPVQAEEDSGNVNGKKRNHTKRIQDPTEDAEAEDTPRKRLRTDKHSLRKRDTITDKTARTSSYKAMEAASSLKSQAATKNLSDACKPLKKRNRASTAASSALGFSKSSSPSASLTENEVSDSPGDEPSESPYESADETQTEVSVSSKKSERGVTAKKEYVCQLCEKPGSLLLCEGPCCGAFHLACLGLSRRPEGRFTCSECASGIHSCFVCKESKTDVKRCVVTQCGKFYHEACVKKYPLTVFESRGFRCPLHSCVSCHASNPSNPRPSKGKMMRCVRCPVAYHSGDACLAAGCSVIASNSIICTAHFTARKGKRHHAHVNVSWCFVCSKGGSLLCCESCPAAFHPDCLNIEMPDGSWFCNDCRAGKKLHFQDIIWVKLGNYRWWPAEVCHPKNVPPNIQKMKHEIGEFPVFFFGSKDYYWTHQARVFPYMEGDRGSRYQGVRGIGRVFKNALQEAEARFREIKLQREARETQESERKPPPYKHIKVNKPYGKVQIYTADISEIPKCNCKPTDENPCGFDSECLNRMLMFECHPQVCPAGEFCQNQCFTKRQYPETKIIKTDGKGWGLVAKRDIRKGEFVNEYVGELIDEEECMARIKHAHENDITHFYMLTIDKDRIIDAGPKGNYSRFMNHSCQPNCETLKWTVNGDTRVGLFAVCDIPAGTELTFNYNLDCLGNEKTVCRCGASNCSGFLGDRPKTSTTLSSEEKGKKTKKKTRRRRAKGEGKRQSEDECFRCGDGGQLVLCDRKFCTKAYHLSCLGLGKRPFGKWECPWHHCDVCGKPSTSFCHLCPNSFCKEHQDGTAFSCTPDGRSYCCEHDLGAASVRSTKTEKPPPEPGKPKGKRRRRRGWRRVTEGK
It is filed as biochemical.

The next assay deals with Cytochrome P450 2C19 (Homo sapiens, UniProt P33261). Briefly: Cytochrome panel assay with activity outcomes. Panel member name: p450-cyp2c19 Compounds with AC50 equal or less than 10 uM are considered active. It is filed as functional. Particulars: read-out: AC50.
Assay [13] concerns the target Glyceraldehyde-3-phosphate dehydrogenase (Homo sapiens, UniProt P04406).
The target in a further assay is T4, Protein RecA (Mycobacterium tuberculosis, UniProt P9WHJ3).
T4 sequence (P9WHJ3 whole entry): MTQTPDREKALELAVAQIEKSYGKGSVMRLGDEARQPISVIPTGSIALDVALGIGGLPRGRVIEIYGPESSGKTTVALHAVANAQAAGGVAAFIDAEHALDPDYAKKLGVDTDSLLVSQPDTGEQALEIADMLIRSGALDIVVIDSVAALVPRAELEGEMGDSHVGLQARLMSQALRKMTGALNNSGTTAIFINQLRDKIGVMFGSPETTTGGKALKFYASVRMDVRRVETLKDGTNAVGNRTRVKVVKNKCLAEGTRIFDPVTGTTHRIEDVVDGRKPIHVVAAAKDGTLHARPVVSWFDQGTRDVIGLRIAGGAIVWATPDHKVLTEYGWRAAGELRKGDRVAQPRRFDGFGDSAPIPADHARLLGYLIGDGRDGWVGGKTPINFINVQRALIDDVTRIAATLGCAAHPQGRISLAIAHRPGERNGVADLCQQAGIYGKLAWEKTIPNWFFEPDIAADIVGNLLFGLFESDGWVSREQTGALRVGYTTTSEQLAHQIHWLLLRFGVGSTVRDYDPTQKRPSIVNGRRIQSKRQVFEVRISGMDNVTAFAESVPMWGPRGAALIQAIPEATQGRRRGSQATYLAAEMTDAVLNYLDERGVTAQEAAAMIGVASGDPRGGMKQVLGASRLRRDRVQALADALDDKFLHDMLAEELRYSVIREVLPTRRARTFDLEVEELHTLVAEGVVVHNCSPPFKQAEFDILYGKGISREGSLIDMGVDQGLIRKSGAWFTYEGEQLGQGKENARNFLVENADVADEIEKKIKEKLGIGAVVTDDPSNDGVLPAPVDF
Put plainly: Fluorescence Cell-Free Homogeneous Dose Retest to Identify Inhibitors of RecA-Intein Splicing Activity. [Related pubchem assays (depositor defined):AID2097, AID2223, AID489010, AID492950]. It counts as functional.

The target of assay [14] is T5, Replicative DNA helicase DnaB (Mycobacterium tuberculosis, UniProt P9WMR3).
T5 sequence (P9WMR3 whole entry): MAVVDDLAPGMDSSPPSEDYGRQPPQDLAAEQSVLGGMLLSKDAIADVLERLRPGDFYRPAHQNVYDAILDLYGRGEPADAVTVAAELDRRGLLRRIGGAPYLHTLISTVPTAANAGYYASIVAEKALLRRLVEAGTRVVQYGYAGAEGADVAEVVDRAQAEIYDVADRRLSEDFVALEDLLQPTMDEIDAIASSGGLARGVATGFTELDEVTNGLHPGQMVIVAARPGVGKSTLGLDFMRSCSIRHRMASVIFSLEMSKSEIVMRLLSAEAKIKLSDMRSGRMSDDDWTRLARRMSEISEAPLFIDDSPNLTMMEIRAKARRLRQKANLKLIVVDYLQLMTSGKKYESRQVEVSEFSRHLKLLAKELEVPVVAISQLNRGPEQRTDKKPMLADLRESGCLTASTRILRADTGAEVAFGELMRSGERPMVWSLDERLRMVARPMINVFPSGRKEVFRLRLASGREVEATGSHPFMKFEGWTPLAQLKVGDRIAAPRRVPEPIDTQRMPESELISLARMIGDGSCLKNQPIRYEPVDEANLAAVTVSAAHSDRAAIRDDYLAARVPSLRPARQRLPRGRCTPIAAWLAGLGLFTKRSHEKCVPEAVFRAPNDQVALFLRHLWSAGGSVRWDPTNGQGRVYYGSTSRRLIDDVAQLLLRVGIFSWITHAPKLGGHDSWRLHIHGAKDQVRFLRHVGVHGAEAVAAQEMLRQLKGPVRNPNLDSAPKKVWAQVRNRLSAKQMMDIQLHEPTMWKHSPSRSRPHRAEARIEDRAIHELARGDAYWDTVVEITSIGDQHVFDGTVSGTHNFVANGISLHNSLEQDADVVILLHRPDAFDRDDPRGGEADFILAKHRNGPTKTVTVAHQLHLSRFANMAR
Briefly: DnaB intein splicing inhibitors, dose response, biochemical, cell-free fluorescence (AID 449749). It counts as functional.

T2 sequence (P11940 whole entry, the tested form may be a part): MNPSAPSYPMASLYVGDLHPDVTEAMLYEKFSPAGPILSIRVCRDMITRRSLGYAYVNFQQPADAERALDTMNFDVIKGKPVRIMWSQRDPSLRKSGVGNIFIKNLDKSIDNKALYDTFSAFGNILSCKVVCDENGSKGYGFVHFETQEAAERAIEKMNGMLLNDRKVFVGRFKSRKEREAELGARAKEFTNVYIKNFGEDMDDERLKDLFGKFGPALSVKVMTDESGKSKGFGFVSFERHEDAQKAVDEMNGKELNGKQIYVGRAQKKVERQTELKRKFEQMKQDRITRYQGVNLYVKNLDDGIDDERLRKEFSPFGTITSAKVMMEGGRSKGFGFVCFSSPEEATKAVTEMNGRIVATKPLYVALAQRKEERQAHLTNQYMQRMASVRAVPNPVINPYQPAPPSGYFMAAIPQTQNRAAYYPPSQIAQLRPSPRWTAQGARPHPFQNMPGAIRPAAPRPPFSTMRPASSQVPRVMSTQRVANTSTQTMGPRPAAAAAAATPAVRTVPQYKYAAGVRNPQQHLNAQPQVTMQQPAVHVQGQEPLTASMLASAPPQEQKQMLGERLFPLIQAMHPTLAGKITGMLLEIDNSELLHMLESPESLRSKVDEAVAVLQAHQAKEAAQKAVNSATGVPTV
T1 sequence (Q92731 whole entry): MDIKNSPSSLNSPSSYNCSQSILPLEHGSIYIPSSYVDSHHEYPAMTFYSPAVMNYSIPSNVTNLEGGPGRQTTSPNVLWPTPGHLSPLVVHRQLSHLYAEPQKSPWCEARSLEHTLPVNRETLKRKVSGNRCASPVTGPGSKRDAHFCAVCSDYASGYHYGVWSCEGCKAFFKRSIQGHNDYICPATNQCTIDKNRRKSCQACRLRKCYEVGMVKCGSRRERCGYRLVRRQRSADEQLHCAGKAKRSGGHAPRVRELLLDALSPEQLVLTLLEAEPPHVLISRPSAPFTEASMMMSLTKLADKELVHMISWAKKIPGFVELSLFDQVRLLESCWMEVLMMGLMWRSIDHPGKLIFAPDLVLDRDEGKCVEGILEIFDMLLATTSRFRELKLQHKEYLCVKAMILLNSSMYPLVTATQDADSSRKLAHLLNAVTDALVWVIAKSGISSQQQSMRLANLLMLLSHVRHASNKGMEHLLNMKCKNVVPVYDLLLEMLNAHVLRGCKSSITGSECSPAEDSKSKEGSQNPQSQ
Chain of Large T antigen (P03070 whole entry): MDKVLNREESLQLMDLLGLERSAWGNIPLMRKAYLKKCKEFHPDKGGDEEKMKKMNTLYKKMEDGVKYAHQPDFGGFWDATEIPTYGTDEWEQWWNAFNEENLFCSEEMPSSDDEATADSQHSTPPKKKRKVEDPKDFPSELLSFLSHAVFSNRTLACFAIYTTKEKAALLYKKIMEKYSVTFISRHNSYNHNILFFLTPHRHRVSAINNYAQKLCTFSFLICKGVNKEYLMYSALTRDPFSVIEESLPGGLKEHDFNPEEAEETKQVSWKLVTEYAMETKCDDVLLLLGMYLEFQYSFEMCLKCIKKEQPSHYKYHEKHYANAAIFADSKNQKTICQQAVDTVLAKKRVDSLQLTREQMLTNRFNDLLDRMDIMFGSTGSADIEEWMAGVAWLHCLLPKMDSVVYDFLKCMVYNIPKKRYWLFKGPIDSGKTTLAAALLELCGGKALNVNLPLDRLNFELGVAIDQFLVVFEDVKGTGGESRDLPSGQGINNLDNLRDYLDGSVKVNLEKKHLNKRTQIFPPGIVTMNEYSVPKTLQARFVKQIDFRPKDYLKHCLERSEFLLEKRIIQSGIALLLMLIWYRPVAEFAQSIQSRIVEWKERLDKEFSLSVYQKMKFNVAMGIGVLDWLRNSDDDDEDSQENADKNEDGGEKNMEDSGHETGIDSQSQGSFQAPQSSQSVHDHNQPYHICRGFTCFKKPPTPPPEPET
Chain of Ephrin type-A receptor 4 (Q03137 whole entry, the tested form may be a part): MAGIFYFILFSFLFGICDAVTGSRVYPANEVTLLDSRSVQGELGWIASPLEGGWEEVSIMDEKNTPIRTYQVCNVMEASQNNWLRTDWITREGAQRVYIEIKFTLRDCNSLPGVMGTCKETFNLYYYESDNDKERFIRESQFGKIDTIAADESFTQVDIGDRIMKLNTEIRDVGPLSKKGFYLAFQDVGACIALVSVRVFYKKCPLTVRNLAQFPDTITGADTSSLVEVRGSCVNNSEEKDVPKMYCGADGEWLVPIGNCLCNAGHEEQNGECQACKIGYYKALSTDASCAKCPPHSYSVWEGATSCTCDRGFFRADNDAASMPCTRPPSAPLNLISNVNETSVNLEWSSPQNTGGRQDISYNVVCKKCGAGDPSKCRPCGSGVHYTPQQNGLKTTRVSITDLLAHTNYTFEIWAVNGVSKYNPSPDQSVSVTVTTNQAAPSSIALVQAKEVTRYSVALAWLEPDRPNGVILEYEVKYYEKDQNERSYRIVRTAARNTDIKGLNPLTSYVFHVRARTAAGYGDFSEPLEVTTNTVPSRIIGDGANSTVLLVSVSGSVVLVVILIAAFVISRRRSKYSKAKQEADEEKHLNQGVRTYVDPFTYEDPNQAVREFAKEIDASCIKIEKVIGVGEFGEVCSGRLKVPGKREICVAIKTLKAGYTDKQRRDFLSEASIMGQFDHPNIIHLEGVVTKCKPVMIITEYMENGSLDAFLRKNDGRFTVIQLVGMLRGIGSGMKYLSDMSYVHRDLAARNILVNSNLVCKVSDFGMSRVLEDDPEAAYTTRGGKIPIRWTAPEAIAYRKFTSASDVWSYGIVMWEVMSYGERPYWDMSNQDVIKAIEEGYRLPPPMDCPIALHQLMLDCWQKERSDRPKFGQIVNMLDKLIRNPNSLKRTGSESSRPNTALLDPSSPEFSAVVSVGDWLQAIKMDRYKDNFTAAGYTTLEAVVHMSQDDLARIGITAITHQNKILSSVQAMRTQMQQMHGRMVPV
Chain of Cytochrome P450 2C9 (P11712 whole entry): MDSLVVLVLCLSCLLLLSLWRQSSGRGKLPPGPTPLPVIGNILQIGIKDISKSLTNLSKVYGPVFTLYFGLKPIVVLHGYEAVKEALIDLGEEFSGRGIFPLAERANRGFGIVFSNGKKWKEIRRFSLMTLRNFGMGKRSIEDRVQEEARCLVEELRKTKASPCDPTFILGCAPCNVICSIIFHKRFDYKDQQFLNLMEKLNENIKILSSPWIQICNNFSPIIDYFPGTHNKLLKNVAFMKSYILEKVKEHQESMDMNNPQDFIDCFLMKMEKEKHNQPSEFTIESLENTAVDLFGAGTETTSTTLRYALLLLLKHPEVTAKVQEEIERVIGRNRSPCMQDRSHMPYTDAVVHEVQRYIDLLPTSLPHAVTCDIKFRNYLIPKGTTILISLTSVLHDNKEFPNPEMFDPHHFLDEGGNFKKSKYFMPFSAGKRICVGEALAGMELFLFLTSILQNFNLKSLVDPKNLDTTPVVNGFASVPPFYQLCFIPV
Chain of Cytochrome P450 2C19 (P33261 whole entry): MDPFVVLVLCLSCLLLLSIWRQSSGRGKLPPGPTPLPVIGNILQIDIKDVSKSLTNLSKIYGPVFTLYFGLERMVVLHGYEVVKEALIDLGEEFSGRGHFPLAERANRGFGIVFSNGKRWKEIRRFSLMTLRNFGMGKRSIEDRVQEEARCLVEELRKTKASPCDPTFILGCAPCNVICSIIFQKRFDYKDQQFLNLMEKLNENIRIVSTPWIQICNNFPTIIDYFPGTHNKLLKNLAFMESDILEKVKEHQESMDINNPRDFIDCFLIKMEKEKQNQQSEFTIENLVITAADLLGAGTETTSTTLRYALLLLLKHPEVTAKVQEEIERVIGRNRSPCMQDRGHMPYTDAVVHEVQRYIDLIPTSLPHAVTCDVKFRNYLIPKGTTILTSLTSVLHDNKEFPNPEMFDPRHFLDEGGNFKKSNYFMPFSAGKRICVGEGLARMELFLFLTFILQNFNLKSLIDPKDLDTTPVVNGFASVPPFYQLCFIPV
Chain of Eukaryotic translation initiation factor 4E (P63073 whole entry): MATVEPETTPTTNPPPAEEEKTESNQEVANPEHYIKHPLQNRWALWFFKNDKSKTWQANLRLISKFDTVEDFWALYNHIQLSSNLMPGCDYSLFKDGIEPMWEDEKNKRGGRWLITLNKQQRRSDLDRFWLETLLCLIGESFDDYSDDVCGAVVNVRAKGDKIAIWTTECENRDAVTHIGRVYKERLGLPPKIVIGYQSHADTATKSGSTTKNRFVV
Chain of FAD-linked sulfhydryl oxidase ALR (P55789 whole entry): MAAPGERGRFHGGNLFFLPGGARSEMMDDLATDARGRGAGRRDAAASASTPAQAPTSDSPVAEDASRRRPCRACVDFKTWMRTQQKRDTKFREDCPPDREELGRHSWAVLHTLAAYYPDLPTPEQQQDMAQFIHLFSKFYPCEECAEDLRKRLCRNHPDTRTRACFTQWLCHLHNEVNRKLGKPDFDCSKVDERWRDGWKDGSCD
Chain of Glyceraldehyde-3-phosphate dehydrogenase (P04406 whole entry): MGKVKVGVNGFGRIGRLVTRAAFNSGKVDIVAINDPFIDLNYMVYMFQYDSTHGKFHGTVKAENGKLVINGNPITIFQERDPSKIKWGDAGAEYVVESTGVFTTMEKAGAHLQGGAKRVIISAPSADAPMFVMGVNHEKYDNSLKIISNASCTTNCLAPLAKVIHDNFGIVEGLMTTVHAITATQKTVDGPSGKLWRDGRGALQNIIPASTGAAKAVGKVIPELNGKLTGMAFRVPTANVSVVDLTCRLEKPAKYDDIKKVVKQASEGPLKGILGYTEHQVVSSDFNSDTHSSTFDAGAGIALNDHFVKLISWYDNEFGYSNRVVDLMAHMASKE

As for `COc1ccc(-c2nn3cnnc3s2)cc1OC`, the IC50 at Prothrombin is recorded as > 50 µM (not active). On Cytochrome P450 2C9, the AC50 was 1.41 µM (inconclusive).

Regarding `Cc1noc(C)c1NC(=O)Nc1cccc2c1O[C@H](CN(C)Cc1ccc(C(F)(F)F)cc1)[C@@H](C)CN([C@H](C)CO)C2=O`, the AC50 in assay [1] was 10.4 µM (active).

With `O=C(NCc1ccccc1)c1nc(-c2cccs2)no1`, on Prothrombin, the IC50 was > 50 µM (not active).

On to `CCSc1nnc(NC(=O)c2ccco2)s1`, for which the IC50 on Prothrombin was > 50 µM (not active).

Turning to `COc1ccc(NC(=O)Nc2ccc3c(c2)CC(=O)N([C@H](C)CO)C[C@@H](C)[C@@H](CN(C)Cc2ccc(-c4ccccc4)cc2)O3)cc1`, the AC50 in assay [1] was 3.14 µM (active).

Turning to `CC(=O)N(c1ccc2oc(=O)sc2c1)S(=O)(=O)c1ccccc1`, the IC50 is 30.3 µM (active) at Large T antigen and > 100 µM (not active) on Ephrin type-A receptor 4.

With `CC(C)(C)NC(=O)C(c1ccccc1)N(Cc1cccs1)C(=O)c1csnn1` (stereo not given), the concentration at half-maximal activity (AC50) in assay [2] was 38.5 µM (active); in assay [3] it was 8.36 µM (active); in [4], 6.9 µM (active); in assay [5], 5.72 µM (active).

Regarding `CCc1nnc(NC(=O)Cc2ccc(OCc3c(C)noc3C)cc2)s1`, in assay [6], the IC50 was > 64 µM (inactive).

In the case of `Cc1ccc(S(=O)(=O)Nc2cccc3c2O[C@@H](CN(C)Cc2ccc(C(=O)Nc4ccccc4N)cc2)[C@@H](C)CN([C@@H](C)CO)C3=O)cc1`, in [1], the AC50 was 2.17 µM (active).

As to `CCN(CCCNC(=O)CN(C)S(=O)(=O)c1cccc2nsnc12)c1cccc(C)c1`, at Ephrin type-A receptor 4, the IC50 is > 100 µM (not active). The AC50 in [7] was 3.31 µM (active).

In the case of `O=C(CSc1nnc(Cn2nnc(-c3ccccc3)n2)n1-c1ccccc1)Nc1ccc(F)cc1`, the IC50 against Prothrombin is > 50 µM (not active).

In the case of `COc1cccc2cc3c(=O)n(-c4ccccc4)nc-3oc12`, the IC50 at Estrogen receptor beta [8] was 15.7 µM (active); on Estrogen receptor beta [9], > 50 µM (not active).

For `O=C(C[C@H]1CC[C@@H](NC(=O)Nc2ccccc2F)[C@@H](CO)O1)NCc1ccc(Cl)cc1`, the results for the AC50 in assay [3], in assay [4] and in assay [5] were 18.8 µM (active), 5.2 µM (active) and 5.31 µM (active), respectively.

Regarding `Cn1nccc1-c1cc(Cl)cc(Cl)c1O`, the IC50 on Prothrombin is > 50 µM (not active).

Turning to `COc1ccc(NC(=O)Nc2cccc3c2O[C@H](CN(C)Cc2ccc(C(=O)Nc4ccccc4N)cc2)[C@H](C)CN([C@@H](C)CO)C3=O)cc1`, the AC50 in [1] is 5.98 µM (active).

Turning to `Oc1ccc(/C=N/NC(=S)Nc2cccnc2)cc1`, the results for the IC50 (in [10]; at Large T antigen; in assay [11]) were > 66 µM (inactive), 19.4 µM (active) and > 66 µM (inactive), respectively.

Regarding `COc1ccc(S(=O)(=O)Nc2ccc3c(c2)CC(=O)N([C@H](C)CO)C[C@@H](C)[C@@H](CN(C)S(=O)(=O)c2ccc(Cl)cc2)O3)cc1`, the concentration at half-maximal activity (AC50) in [1] is 1.97 µM (active).

As to `CCN(CC)CCCN(Cc1cc2ccc(C)c(C)c2nc1O)C(=O)NC1CCCCC1`, the AC50 was > 20 µM (inactive) in assay [12] and 39.8 µM (inconclusive) at Cytochrome P450 2C19.

With `NS(=O)(=O)c1ccc(CCNC(=O)Cc2cccs2)cc1`, the IC50 in assay [13] is > 100 µM (not active).

Regarding `Cc1ccc(SC(=O)c2c(C)noc2-c2cc(C)on2)cc1`, the IC50 in assay [10] and in assay [11] was > 66 µM (inactive) each time. In addition, at Protein RecA, the EC50 is 8.74 µM (active). The AC50 in assay [14] is 6.38 µM (active).
